From US12474342B2, “Methods for treating cancer and the use of biomarkers as a predictor of clinical sensitivity to therapies” (CELGENE CORPORATION, priority 2016, dated 2025)
Read-outs that look alike come from different tables or passages of the source. Marks after values point to notes of the source that are not given here.

Key:
[1] = system: proteins in the UPR pathway, PARP; assay: UPR pathway proteins and PARP cleavage, western blot, healthy PBMCs; assay type: cell-based, human; conditions: 10 nM Compound D
GSPT1 [2] = molecular target: T1, GSPT1 (Homo sapiens, UniProt P15170+Q96SW2); assay: GSPT1 protein reduction, western analysis, ML-2; assay type: cell-based; parameters: reduction in GSPT1 protein level was evaluated in human normal PBMCs; endogenous in cells; host or cells: primary PBMCs from normal donors (ID 4328, 4379) and AML patients (ID 11SH, 09P6)
T1 sequence (P15170 1-637 isoform P15170-3): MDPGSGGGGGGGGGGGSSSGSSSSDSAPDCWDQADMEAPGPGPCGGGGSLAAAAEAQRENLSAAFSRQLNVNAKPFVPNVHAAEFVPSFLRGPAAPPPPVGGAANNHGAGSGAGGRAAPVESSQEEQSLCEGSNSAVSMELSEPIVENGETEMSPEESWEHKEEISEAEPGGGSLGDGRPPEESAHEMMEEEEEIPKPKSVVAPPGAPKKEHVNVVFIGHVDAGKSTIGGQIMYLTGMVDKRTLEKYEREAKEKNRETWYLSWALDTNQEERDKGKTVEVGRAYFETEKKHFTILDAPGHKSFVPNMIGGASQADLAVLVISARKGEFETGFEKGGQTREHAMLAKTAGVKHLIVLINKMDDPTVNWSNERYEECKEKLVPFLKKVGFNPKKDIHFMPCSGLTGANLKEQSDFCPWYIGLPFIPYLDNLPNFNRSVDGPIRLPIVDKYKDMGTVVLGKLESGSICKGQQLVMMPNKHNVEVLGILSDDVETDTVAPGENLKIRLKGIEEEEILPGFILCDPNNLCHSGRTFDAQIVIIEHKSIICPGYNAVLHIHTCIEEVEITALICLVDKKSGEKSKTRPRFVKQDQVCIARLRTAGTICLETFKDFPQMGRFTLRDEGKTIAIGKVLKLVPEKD
T1 sequence (Q96SW2 whole entry): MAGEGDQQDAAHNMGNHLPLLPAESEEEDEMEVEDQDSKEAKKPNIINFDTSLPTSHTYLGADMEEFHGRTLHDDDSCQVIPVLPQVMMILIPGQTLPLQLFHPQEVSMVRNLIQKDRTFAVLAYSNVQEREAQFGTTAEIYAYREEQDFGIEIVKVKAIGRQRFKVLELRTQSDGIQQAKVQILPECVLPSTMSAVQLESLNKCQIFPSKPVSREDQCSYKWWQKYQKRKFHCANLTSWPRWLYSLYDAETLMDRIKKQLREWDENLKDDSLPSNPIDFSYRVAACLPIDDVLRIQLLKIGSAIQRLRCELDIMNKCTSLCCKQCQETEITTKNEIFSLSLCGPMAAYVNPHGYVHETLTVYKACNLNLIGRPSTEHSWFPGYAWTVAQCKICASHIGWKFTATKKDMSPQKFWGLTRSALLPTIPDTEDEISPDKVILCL
T1 sequence (Q16531 whole entry partner): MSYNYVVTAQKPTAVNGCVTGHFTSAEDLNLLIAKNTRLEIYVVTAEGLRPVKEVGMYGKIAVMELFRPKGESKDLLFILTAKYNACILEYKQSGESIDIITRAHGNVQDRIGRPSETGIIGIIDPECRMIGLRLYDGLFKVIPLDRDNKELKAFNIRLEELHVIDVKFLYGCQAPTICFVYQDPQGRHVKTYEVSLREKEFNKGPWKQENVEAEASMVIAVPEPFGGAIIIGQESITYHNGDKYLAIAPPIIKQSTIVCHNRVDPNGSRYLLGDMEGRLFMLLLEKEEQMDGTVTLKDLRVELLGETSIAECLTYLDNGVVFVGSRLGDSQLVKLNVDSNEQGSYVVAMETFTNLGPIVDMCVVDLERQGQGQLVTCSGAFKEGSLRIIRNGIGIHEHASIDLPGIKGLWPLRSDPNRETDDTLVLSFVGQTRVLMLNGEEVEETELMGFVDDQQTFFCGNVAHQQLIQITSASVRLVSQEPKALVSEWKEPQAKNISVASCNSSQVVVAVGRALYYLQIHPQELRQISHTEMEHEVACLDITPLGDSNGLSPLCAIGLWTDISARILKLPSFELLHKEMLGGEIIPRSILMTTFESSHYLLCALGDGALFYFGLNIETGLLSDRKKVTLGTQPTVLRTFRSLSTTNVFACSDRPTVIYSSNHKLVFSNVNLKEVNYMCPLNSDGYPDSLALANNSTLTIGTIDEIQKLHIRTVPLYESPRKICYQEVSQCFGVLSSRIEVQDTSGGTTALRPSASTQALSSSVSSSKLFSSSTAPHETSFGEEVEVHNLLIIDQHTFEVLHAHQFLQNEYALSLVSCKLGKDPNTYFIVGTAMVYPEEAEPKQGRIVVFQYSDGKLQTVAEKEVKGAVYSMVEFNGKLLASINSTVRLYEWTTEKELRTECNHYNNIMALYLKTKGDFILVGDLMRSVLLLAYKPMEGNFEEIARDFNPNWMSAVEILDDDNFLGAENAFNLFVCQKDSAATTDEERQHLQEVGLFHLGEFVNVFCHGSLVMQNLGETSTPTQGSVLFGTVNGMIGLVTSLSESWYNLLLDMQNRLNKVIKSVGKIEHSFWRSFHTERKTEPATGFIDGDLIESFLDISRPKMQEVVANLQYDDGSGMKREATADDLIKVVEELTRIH
Procedure: (§1) The time course of the reduction in GSPT1 by Compound D also was studied for up to 48 hours. The progressive degradation of GSPT1 over the course of 1 to 20 hours was evident in the presence of all concentrations of Compound D studied from 3 to 300 nM in HNT-34, HL-60, and ML-2 cells, with little GSPT1 remaining by 20 hours at 100 or 300 nM Compound D in HNT-34 or HL-60 cells (FIG. 34 and FIG. 35C). Time-dependent reduction in GSPT1 was also observed in KG-1 and OCI-AML2 cells at 3 to 1000 nM Compound D, with little GSPT1 remaining in KG-1 cells at 100 to 300 nM at 24 hours or in OCI-AML2 cells at 300 and 1000 nM at 24 hours (FIG. 35D). Loss of GSPT1 occurred more slowly in Kasumi-1, AML-193, and […] cells. […] A positive association (r^2=0.50; […]

OCI-AML3 cells = assay: Apoptosis (caspase 3/7 activation), OCI-AML3; assay type: cell-based, human; conditions: OCI-AML3, 123 nM
KASUMI-1 cells = assay: Apoptosis (caspase 3/7 activation), Kasumi-1; assay type: cell-based, human
NB-4 cells = assay: Anti-proliferation 72-hour CTG assay, NB-4; assay type: cell-based; conditions: Homo sapiens; NB-4, 72-hour CTG assay; read-out: IC50 of the anti-proliferative effect
Procedure: A plethora of AML cell lines were treated with serial dilutions of Compound D. IC50 value of the anti-proliferation effect of Compound D (as determined in 72-hour CTG assays) in each cell line is summarized in Table 1.

[3] = system: nontumorigenic human hepatocellular cell line THLE-2; assay: Anti-proliferation, THLE-2; assay type: cell-based; conditions: THLE-2 (data not shown)
AML-193 cells = assay: Apoptosis (caspase 3/7 activation), AML-193; assay type: cell-based, human; conditions: for EC50: Homo sapiens, read-out: Compound D-induced Apoptosis EC50
ML-2 cells = assay: Apoptosis (caspase 3/7 activation), ML-2; assay type: cell-based, human; conditions: for EC50: Homo sapiens, read-out: Compound D-induced Apoptosis EC50
GSPT1 [4] = molecular target: T1, GSPT1; assay: GSPT1 degradation, western blot, MOLM-13; assay type: cell-based; parameters: endogenous in cells; conditions: 100 nM
Excerpt: Thus, Compound D-induced GSPT1 degradation is also CRBN-dependent.

GSPT1 [5] = molecular target: T1, GSPT1; assay: GSPT1 protein reduction, western analysis, F36-P; assay type: cell-based; parameters: reduction in GSPT1 protein level was evaluated in human normal PBMCs; endogenous in cells; host or cells: primary PBMCs from normal donors (ID 4328, 4379) and AML patients (ID 11SH, 09P6)
Procedure: as §1

KG-1 cells = assay: Anti-proliferation CTG assay, KG-1; assay type: cell-based, human
Procedure: The effect of depletion of GSPT1 on the anti-proliferative effect of compound Compound D and Compound E was also determined in human acute myelogenous leukemia cell lines AML and KG1. […]

ATF3 and DDIT3 mRNA = ATF3 and DDIT3 mRNA induction, healthy PBMCs; assay type: cell-based, human; conditions: by 8 hours
Excerpt: The kinetics of induction of mRNA for UPR factors ATF3 and DDIT3 in HNT-34 cells also strongly differed from that in PBMCs. […] This is also consistent with the reduced cytotoxicity observed for Compound D in normal adult lymphocytes as compared with tumor cells (data not shown).

## O=C1CCC(N2Cc3cc(CNC(=O)C(F)(F)c4ccc(Cl)cc4)ccc3C2=O)C(=O)N1 (centres unmarked) [Compound D, 2-(4-chlorophenyl)-N-((2-(2,6-dioxopiperidin-3-yl)-1-oxoisoindolin-5-yl)methyl)-2,2-difluoroacetamide]
[1]
  induction of proteins in the UPR pathway or cleavage of PARP: did not occur
GSPT1 [2]; ML-2, 100 nM Compound D, 8 hours
  reduction of GSPT1 protein levels: greater than 800
GSPT1 [2]; ML-2, 100 nM, 8 hr
  Percent Reduction at 100 nM Compound D GSPTI (8 hr): 82%
OCI-AML3 cells; 12 hr
  Average Percent Increase in Apoptosis at 123 nM Compound D, Apoptosis (12 hr): 0%
OCI-AML3 cells; 24 hr
  Average Percent Increase in Apoptosis at 123 nM Compound D, Apoptosis (24 hr): 1%
OCI-AML3 cells; 48 hr
  Average Percent Increase in Apoptosis at 123 nM Compound D, Apoptosis (48 hr): 2%
KASUMI-1 cells; Homo sapiens, read-out: Compound D-induced Apoptosis EC50, Kasumi-1, 96 hr
  EC50: 55 nM
KASUMI-1 cells; Kasumi-1, 123 nM, 12 hr
  Average Percent Increase in Apoptosis at 123 nM Compound D, Apoptosis (12 hr): 1%
KASUMI-1 cells; Kasumi-1, 123 nM, 24 hr
  Average Percent Increase in Apoptosis at 123 nM Compound D, Apoptosis (24 hr): 3%
KASUMI-1 cells; Kasumi-1, 123 nM, 48 hr
  Average Percent Increase in Apoptosis at 123 nM Compound D, Apoptosis (48 hr): 18%
NB-4 cells
  IC50: 17 nM
[3]
  IC50: ~10000 nM
AML-193 cells; AML-193, 123 nM, 12 hr
  Average Percent Increase in Apoptosis at 123 nM Compound D, Apoptosis (12 hr): 0%
AML-193 cells; AML-193, 123 nM, 24 hr
  Average Percent Increase in Apoptosis at 123 nM Compound D, Apoptosis (24 hr): 5%
AML-193 cells; AML-193, 123 nM, 48 hr
  Average Percent Increase in Apoptosis at 123 nM Compound D, Apoptosis (48 hr): 40%
AML-193 cells; AML-193, 48 hr
  EC50: 89 nM
AML-193 cells; AML-193, 72 hr
  EC50: 47 nM
AML-193 cells; AML-193, 96 hr
  EC50: 60 nM
ML-2 cells; ML-2, 24 hr
  EC50: 62 nM
ML-2 cells; ML-2, 48 hr
  EC50: 31 nM
ML-2 cells; ML-2, 72 hr
  EC50: 21 nM
ML-2 cells; ML-2, 96 hr
  EC50: 25 nM
ML-2 cells; ML-2, 123 nM, 12 hr
  Average Percent Increase in Apoptosis at 123 nM Compound D, Apoptosis (12 hr): 2%
ML-2 cells; ML-2, 123 nM, 24 hr
  Average Percent Increase in Apoptosis at 123 nM Compound D, Apoptosis (24 hr): 17%
ML-2 cells; ML-2, 123 nM, 48 hr
  Average Percent Increase in Apoptosis at 123 nM Compound D, Apoptosis (48 hr): 51%
GSPT1 [4]; CRBN -/- MOLM-13 cells
  degradation of GSPT1: could not induce degradation
GSPT1 [4]; parental MOLM-13 cells
  degradation of GSPT1: induced degradation
GSPT1 [5]; 100 nM, 8 hr, change not concentration-dependent at the 8-hour time point
  Percent Reduction at 100 nM Compound D GSPTI (8 hr): 39^a %
GSPT1 [5]; 300 nM Compound D, 8 hours
  GSPT1 reduction: 18%
KG-1 cells; Homo sapiens, KG-1, KG-1, Compound F 0 μM, read-out: Inhibition of Cell Proliferation by Compound D (CTG assay) IC50
  IC50: 10 nM
KG-1 cells; Homo sapiens, KG-1, KG-1, Compound F 30 μM, read-out: Inhibition of Cell Proliferation by Compound D (CTG assay) IC50
  IC50: 1500 nM
KG-1 cells; Homo sapiens, KG-1, 72-hour CTG assay, read-out: IC50 of the anti-proliferative effect
  IC50: 15 nM
KG-1 cells; KG1 parental or control shRNA cells, 0.0001 μM to 1 μM, two days
  cell proliferation (CellTiter-Glo): exhibited anti-proliferative effect, particularly at high concentration
KG-1 cells; read-out: Inhibition of Cell Proliferation by Compound D (CTG assay) IC50
  IC50: 6800 nM
ATF3 and DDIT3 mRNA
  induction of ATF3 or DDIT3 mRNA: no induction
